Calls of active or inactive are those of the source.
Key:
BT-549 [1] = assay: Growth inhibition of human BT549 cells at 10 uM after 48 hrs by sulforhodamine B assay; format: functional, cell-based
Malme-3M = assay: Growth inhibition of human MALME-3M cells at 10 uM after 48 hrs by sulforhodamine B assay; format: functional, cell-based
MDA-MB-231 = assay: Growth inhibition of human MDA-MB-231 cells after 48 hrs by sulforhodamine B assay; format: functional; conditions: MDA-MB-231, 48 h
SK-MEL-28 [2] = assay: Growth inhibition of human SK-MEL-28 cells after 48 hrs by sulforhodamine B assay; format: functional; conditions: SK-MEL-28, 48 h
BT-549 [3] = assay: Growth inhibition of human BT549 cells after 48 hrs by sulforhodamine B assay; format: functional; conditions: BT-549, 48 h
A549 = assay: Growth inhibition of human A549/ATCC cells at 10 uM after 48 hrs by sulforhodamine B assay; format: functional, cell-based
SK-MEL-28 [4] = assay: Growth inhibition of human SK-MEL-28 cells at 10 uM after 48 hrs by sulforhodamine B assay; format: functional, cell-based
UO-31 = assay: Growth inhibition of human UO31 cells at 10 uM after 48 hrs by sulforhodamine B assay; format: functional, cell-based
SW-620 = assay: Growth inhibition of human SW620 cells after 48 hrs by sulforhodamine B assay; format: functional; conditions: SW-620, 48 h
PC-3 = assay: Growth inhibition of human PC3 cells at 10 uM after 48 hrs by sulforhodamine B assay; format: functional, cell-based
LOX IMVI = assay: Growth inhibition of human LOXIMVI cells after 48 hrs by sulforhodamine B assay; format: functional
OVCAR-4 = assay: Growth inhibition of human OVCAR4 cells at 10 uM after 48 hrs by sulforhodamine B assay; format: functional, cell-based
OVCAR-3 = assay: Growth inhibition of human OVCAR3 cells at 10 uM after 48 hrs by sulforhodamine B assay; format: functional, cell-based
ACHN [5] = assay: Growth inhibition of human ACHN cells at 10 uM after 48 hrs by sulforhodamine B assay; format: functional, cell-based
SF-539 = assay: Growth inhibition of human SF539 cells at 10 uM after 48 hrs by sulforhodamine B assay; format: functional, cell-based
U-251 = assay: Growth inhibition of human U251 cells after 48 hrs by sulforhodamine B assay; format: functional; conditions: U-251, 48 h
MDA-MB-468 = assay: Growth inhibition of human MDA-MB-468 cells at 10 uM after 48 hrs by sulforhodamine B assay; format: functional, cell-based
OVCAR-5 [6] = assay: Growth inhibition of human OVCAR5 cells at 10 uM after 48 hrs by sulforhodamine B assay; format: functional, cell-based
ACHN [7] = assay: Growth inhibition of human ACHN cells after 48 hrs by sulforhodamine B assay; format: functional
SF-268 = assay: Growth inhibition of human SF268 cells after 48 hrs by sulforhodamine B assay; format: functional; conditions: SF-268, 48 h
Hs-578T = assay: Growth inhibition of human Hs 578T cells after 48 hrs by sulforhodamine B assay; format: functional
SN12C [8] = assay: Growth inhibition of human SN12C cells after 48 hrs by sulforhodamine B assay; format: functional
SNB-19 [9] = assay: Growth inhibition of human SNB19 cells at 10 uM after 48 hrs by sulforhodamine B assay; format: functional, cell-based
NCI-H460 = assay: Growth inhibition of human NCI-H460 cells after 48 hrs by sulforhodamine B assay; format: functional; conditions: NCI-H460, 48 h
HL-60(TB) = assay: Growth inhibition of human HL-60(TB) cells at 10 uM after 48 hrs by sulforhodamine B assay; format: functional, cell-based
NCI-H322M [10] = assay: Growth inhibition of human NCI-H322M cells after 48 hrs by sulforhodamine B assay; format: functional
SNB-19 [11] = assay: Growth inhibition of human SNB19 cells after 48 hrs by sulforhodamine B assay; format: functional; conditions: SNB-19, 48 h
OVCAR-5 [12] = assay: Growth inhibition of human OVCAR5 cells after 48 hrs by sulforhodamine B assay; format: functional; conditions: OVCAR-5, 48 h
RPMI-8226 [13] = assay: Growth inhibition of human RPMI8226 cells at 10 uM after 48 hrs by sulforhodamine B assay; format: functional, cell-based
K562 = assay: Growth inhibition of human K562 cells at 10 uM after 48 hrs by sulforhodamine B assay; format: functional, cell-based
SK-MEL-2 = assay: Growth inhibition of human SK-MEL-2 cells after 48 hrs by sulforhodamine B assay; format: functional; conditions: SK-MEL-2, 48 h
NCI-H23 = assay: Growth inhibition of human NCI-H23 cells after 48 hrs by sulforhodamine B assay; format: functional; conditions: NCI-H23, 48 h
EKVX = assay: Growth inhibition of human EKVX cells after 48 hrs by sulforhodamine B assay; format: functional
RPMI-8226 [14] = assay: Growth inhibition of human RPMI8226 cells after 48 hrs by sulforhodamine B assay; format: functional; conditions: RPMI-8226, 48 h
NCI-H322M [15] = assay: Growth inhibition of human NCI-H322M cells at 10 uM after 48 hrs by sulforhodamine B assay; format: functional, cell-based
SF-295 = assay: Growth inhibition of human SF295 cells at 10 uM after 48 hrs by sulforhodamine B assay; format: functional, cell-based
IGROV-1 = assay: Growth inhibition of human IGROV1 cells at 10 uM after 48 hrs by sulforhodamine B assay; format: functional, cell-based
NCI/ADR-RES = assay: Growth inhibition of human NCI-ADR-RES cells at 10 uM after 48 hrs by sulforhodamine B assay; format: functional, cell-based
SN12C [16] = assay: Growth inhibition of human SN12C cells at 10 uM after 48 hrs by sulforhodamine B assay; format: functional, cell-based
[17] = read-out: LC50 (the source's name)

O=C1/C(=C\c2cccn2Cc2ccccc2)c2ccccc2N1c1c(Cl)cccc1Cl
5.88 µM: GI50 (MDA-MB-231)
1.28 µM: GI50 (RPMI-8226 [14])
14.8 µM: GI50 (NCI-H322M [10])
7.94 µM: TGI (EKVX)
3.89 µM: GI50 (OVCAR-5 [12])
4.16 µM: GI50 (NCI-H460)
2.23 µM: GI50 (SK-MEL-2)
39.8 µM: GI50 (NCI-H23)
active: growth inhibition (GI) (BT-549 [1]) | growth inhibition (GI) (Malme-3M) | growth inhibition (GI) (A549) | growth inhibition (GI) (SK-MEL-28 [4]) | growth inhibition (GI) (UO-31) | growth inhibition (GI) (PC-3) | growth inhibition (GI) (OVCAR-4) | growth inhibition (GI) (OVCAR-3) | growth inhibition (GI) (ACHN [5]) | growth inhibition (GI) (SF-539) | growth inhibition (GI) (MDA-MB-468) | growth inhibition (GI) (OVCAR-5 [6]) | growth inhibition (GI) (SNB-19 [9]) | growth inhibition (GI) (HL-60(TB)) | growth inhibition (GI) (RPMI-8226 [13]) | growth inhibition (GI) (K562) | growth inhibition (GI) (NCI-H322M [15]) | growth inhibition (GI) (SF-295) | growth inhibition (GI) (IGROV-1) | growth inhibition (GI) (NCI/ADR-RES) | growth inhibition (GI) (SN12C [16])
> 100 µM: TGI (MDA-MB-231) | CC50 (MDA-MB-231; [17]) | GI50 (SK-MEL-28 [2]) | TGI (SK-MEL-28 [2]) | CC50 (SK-MEL-28 [2]; [17]) | GI50 (BT-549 [3]) | TGI (BT-549 [3]) | CC50 (BT-549 [3]; [17]) | GI50 (SW-620) | TGI (SW-620) | CC50 (SW-620; [17]) | GI50 (LOX IMVI) | TGI (LOX IMVI) | CC50 (LOX IMVI; [17]) | GI50 (U-251) | TGI (U-251) | CC50 (U-251; [17]) | TGI (ACHN [7]) | CC50 (ACHN [7]; [17]) | GI50 (SF-268) | TGI (SF-268) | CC50 (SF-268; [17]) | GI50 (Hs-578T) | TGI (Hs-578T) | CC50 (Hs-578T; [17]) | GI50 (SN12C [8]) | TGI (SN12C [8]) | CC50 (SN12C [8]; [17]) | TGI (NCI-H460) | CC50 (NCI-H460; [17]) | TGI (NCI-H322M [10]) | CC50 (NCI-H322M [10]; [17]) | GI50 (SNB-19 [11]) | TGI (SNB-19 [11]) | CC50 (SNB-19 [11]; [17]) | TGI (OVCAR-5 [12]) | CC50 (OVCAR-5 [12]; [17]) | TGI (SK-MEL-2) | CC50 (SK-MEL-2; [17]) | TGI (NCI-H23) | CC50 (NCI-H23; [17]) | CC50 (EKVX; [17]) | TGI (RPMI-8226 [14]) | CC50 (RPMI-8226 [14]; [17])
8.31 µM: GI50 (ACHN [7])
0.41 µM: GI50 (EKVX)
